Laboratory results from US11311609B2, “Regulating chimeric antigen receptors” (DANA-FARBER CANCER INSTITUTE, INC., priority 2017, dated 2022).

Key:
FKBP*-KRASG12V = test: Immunoblot of FKBP*-KRASG12V degradation in NIH3T3 cells; type: cell-based; conditions: NIH3T3 cells; 500 nM, indicated time
Experimental: FIG. 19 is an immunoblot of NIH3T3 cells expressing KRASG12V allele fused to FKBP* in the N-terminus or C-terminus. Cells were treated with 500 nM dFKBP7 for the indicated time. Cells were harvested and immunoblotted to measure degradation of FKBP*-KRASG12V and downstream surrogates of KRAS signaling (e.g. pMEK and pAKT).
(§1) Cells were harvested and immunoblotted to measure degradation of FKBP*-KRASG12V and downstream surrogates of KRAS signaling (e.g. pMEK and pAKT).
as §1, §1
Cells were treated with 500 nM dFKBP7 for the indicated time. Cells were harvested and immunoblotted to measure degradation of FKBP*-KRAS and downstream surrogates of KRAS signaling (e.g. pMEK and pAKT).
(§2) Cells were harvested and immunoblotted to measure degradation of FKBP*-KRAS and downstream surrogates of KRAS signaling (e.g. pMEK and pAKT).
as §2
To evaluate the kinetic control of targeted degradation of dTAG-KRAS, dFKBP13 was administered by increased duration. […]

SMART-CAR = SMART-CAR expression in Jurkat T-cells by flow cytometry with HA-antibody; type: cell-based, human; conditions: 4 hour pretreatment 250 nM, wash, retreatment with 250 nM dFKBP7; 1:1 co-culture
From the text: FIG. 27 is a histogram plot illustrating the ability to track SMART-CAR expression in Jurkat cells. SMART-CAR expressing Jurkat cells were stained with a HA-antibody and subsequently labelled with a secondary Alexa647 fluorescent antibody. Stained cells were subject to flow cytometry with excitation with a 647 nm laser and HA expression quantified via Alexa647 fluorescent signal (Example 24). The observed shift in signal illustrates the ability to track SMART-CAR expression in Jurkat T cells.
FIG. 31 are line plots tracking CD19 positive tumor cells and SMART-CAR expression levels as described in the experimental setup in FIG. 20 and described in Example 26. After the 4 hour pretreatment with 250 nM of dFKBP7, SMART-CAR expressing Jurkats were mixed in a 1:1 ratio with CD19 positive tumor cells (Daudi: top and Raji: bottom) in the presence (green line) or absence (blue line) of 250 nM of dFKBP7. […]
FIG. 27 illustrates the use of flow cytometry to monitor SMART-CAR protein expression in Jurkat T-cells. […] This allows for quantitative measurements of SMART-CAR protein expression levels.
SMART-CAR expressing Jurkat cells were pretreated with dFKBP7 at 250 nM for 4 hours to allow for maximal degradation of SMART-CAR. […] The two experimental arms were then mixed at a 1:1 ratio with CD19 positive tumor cells and CD19-positive tumor cells monitored by flow cytometry. […]

SMILES: CC[C@H](C(=O)N1CCCC[C@H]1C(=O)O[C@H](CCc1ccc(OC)c(OC)c1)c1cccc(OCC(=O)NCCCOCCOCCOCCCNC(=O)COc2cccc3c2C(=O)N(C2CCC(=O)NC2=O)C3=O)c1)c1cc(OC)c(OC)c(OC)c1 (some centres unmarked) [dFKBP7]
- Degradation of N-terminal dTAG-KRAS (FKBP*-KRASG12V): potent degradation
- SMART-CAR expression (SMART-CAR): minimal
